In publication PMC6691587, “New CXCR1/CXCR2 inhibitors represent an effective treatment for kidney or head and neck cancers sensitive or refractory to reference treatments” (Theranostics, 2019):
Like-named read-outs stand apart in the source and are kept apart here.

Experiments:
[1] = system: panel of human tumor cell lines; test: XTT screening on a panel of tumor cell lines; type: cell-based; details: for IC50: Homo sapiens; for anti-proliferation/survival activity on malignant cells: in words
Description: (§1) Fifty microliters of sodium 3′-[1-phenylaminocarbonyl)-3,4-tetrazolium]-bis(4-methoxy-6-nitro) benzene sulfonic acid hydrate (XTT) reagent was added to each well. The assay is based on the cleavage of the yellow tetrazolium salt XTT to form an orange formazan dye by metabolically active cells. This bio-reduction occurs in viable cells only and is related to NAD(P)H production through glycolysis. Therefore, the amount of formazan dye measured at 490 nm directly correlated with the number of metabolically active cells reflecting cell proliferation and viability. Each assay was performed in quadruplicate.

SKM1 = test: XTT cell viability assay, SKM1 MDS cells; type: cell-based, human; details: SD 10%, mean of three experiments, read-out: IC50 SK (MDS)
Description: as §1

K562 = test: XTT cell viability assay, K562 CML cells; type: cell-based, human; details: SD 10%, mean of three experiments
Description: as §1

MDA-MD-231 = test: XTT cell viability assay, breast cancer cells; type: cell-based, human; details: 48 h, SD 10%, mean of three experiments
Description: as §1

Molm14 = test: XTT cell viability assay, Molm14 AML cells; type: cell-based, human; details: SD 10%, mean of three experiments
Description: as §1

Molm13 = test: XTT cell viability assay, Molm13 AML cells; type: cell-based, human; details: SD 10%, mean of three experiments
Description: as §1

CAL33 = test: XTT cell viability assay, CAL33 HNSCC cells; type: cell-based, human; details: XTT assay, 48 h, SD 10%, mean of three experiments, read-out: IC50 33 (HNSCC)
Description: as §1

OCI-AML3 = test: XTT cell viability assay, OCI-AML3 AML cells; type: cell-based, human; details: SD 10%, mean of three experiments, read-out: IC50 L3 (AML)
Description: as §1

OCI-AML2 = test: XTT cell viability assay, OCI-AML2 AML cells; type: cell-based, human; details: SD 10%, mean of three experiments, read-out: IC50 L2 (AML)
Description: as §1

786-O = test: XTT cell viability assay, 786-O RCC cells; type: cell-based, human; details: XTT assay, 48 h, SD 10%, mean of three experiments, read-out: IC50 786 (Kidney RCC)
Description: as §1

A498 = test: XTT cell viability assay, A498 RCC cells; type: cell-based, human; details: XTT assay, 48 h, SD 10%, mean of three experiments, read-out: IC50 498 (Kidney RCC)
Description: as §1

RCC4 = test: XTT cell viability assay, RCC4 RCC cells; type: cell-based, human; details: SD 10%, mean of three experiments, read-out: IC50 R4 (Kidney RCC)
Description: as §1

CAL27 = test: XTT cell viability assay, CAL27 HNSCC cells; type: cell-based, human; details: XTT assay, 48 h, SD 10%, mean of three experiments, read-out: IC50 27 (HNSCC)
Description: as §1

HuVEC = test: Boyden chamber migration assay; type: cell-based, human; details: CXCL7 50 ng/ml, 2.5 µmol/L compound
Description: CXCL7 or VEGFA-stimulated chemotaxis assays were monitored using modified Boyden chambers containing polycarbonate membranes (8-μm pores, Transwell; Corning, Sigma). Cells were seeded onto the upper side of the filters and chambers were placed on 24-well plates containing CXCL7 (50ng/ml) or VEGFA (50ng/ml). Cell migration was followed for 24 h at 37°C in 5% CO2. Migratory cells on the lower membrane surface were fixed in 3% paraformaldehyde, stained with 0.1% crystal violet.

786-O cells = test: Ectopic model of RCC (786-O xenograft); type: in vivo, nude (nu/nu) female mice; details: C29 100 µg i.p. three per week; danirixin 200 µg three times a week; sunitinib 50 mg/kg oral gavage five times a week
Description: These studies were carried out in strict accordance with the recommendations in the Guide for the Care and Use of Laboratory Animals. Our experiments were approved by the ''Comité National Institutionnel d'Ethique pour l'Animal de Laboratoire'' (reference: PEA-255 and PEA-277). Cells were injected subcutaneously into the flank of 5-week-old nude (nu/nu) female mice (Janvier). When the tumor reached 100 mm^3, mice were treated. The tumor volume was determined with a caliper (v = L*l2*0.5).
2- Seven million 786-O cells were injected subcutaneously.

[2] = read-out: IC50 for solid tumors (breast and kidney)
[3] = read-out: IC50 values for several cancer cell lines

| Structure (SMILES) | IC50 (SKM1; Homo sapiens, SKM-1, 48 h) [µM] | IC50 (K562; Homo sapiens, K562, 48 h) [µM] | IC50 (MDA-MD-231; Homo sapiens) [µM] | IC50 (Molm14; Homo sapiens, MOLM-14, 48 h) [µM] | IC50 (Molm13; Homo sapiens, MOLM-13, 48 h) [µM] | IC50 (CAL33; Homo sapiens, CAL-33) [µM] | IC50 (OCI-AML3; Homo sapiens, OCI-AML-3, 48 h) [µM] | IC50 (OCI-AML2; Homo sapiens, OCI-AML2, 48 h) [µM] | IC50 (786-O; Homo sapiens, 786-0) [µM] | IC50 (A498; Homo sapiens, A498) [µM] | IC50 (RCC4; Homo sapiens, RCC4, 48 h) [µM] | IC50 (CAL27; Homo sapiens, CAL-27) [µM] | IC50 [1, 3] [µM] | also measured |
| --- | --- | --- | --- | --- | --- | --- | --- | --- | --- | --- | --- | --- | --- | --- |
| O=C(Nc1cccc(Cl)c1)Nc1cccc(Cl)c1 [C9] | > 25 | 10 | 15 | 20 | > 25 | 10 | > 25 | 20 | 15 | 10 | 15 | 12 |  | IC50 [1, 2]: 10 to 20 µM |
| O=C(Nc1ccc(Cl)cc1)Nc1ccccc1O [C12] | > 25 | 25 | 12 | 15 | > 25 | 10 | 25 | 15 | 15 | 10 | 15 | 12 |  | IC50 [1, 2]: 10 to 20 µM |
| O=C(Nc1ccc(Cl)cc1)Nc1nc2ccccc2[nH]1 [C16] | > 25 | 12 | 20 | 20 | > 25 | 15 | 22 | 20 | 20 | 9 | 20 | 15 | < 20 |  |
| O=C(Nc1ccccc1)Nc1nc2ccccc2o1 [C18] | > 25 | > 25 | > 25 | > 25 | > 25 | > 25 | > 25 | > 25 | > 25 | > 25 | > 25 | > 25 |  | anti-proliferation/survival activity on malignant cells [1]: did not give anti-proliferation/survival activity |
| S=C(Nc1ccccc1)Nc1nc2ccccc2o1 [C19] | > 25 | > 25 | > 25 | > 25 | > 25 | > 25 | > 25 | > 25 | > 25 | > 25 | > 25 | > 25 |  | anti-proliferation/survival activity on malignant cells [1]: did not give anti-proliferation/survival activity |
| Cc1ccc2nc(NC(=O)Nc3ccccc3Cl)sc2c1 [C25] | 25 | 25 | > 25 | 10 | 15 | 10 | 10 | > 25 | 15 | 15 | > 25 | 5 | < 20 |  |
| O=C(Nc1nc2ccc([N+](=O)[O-])cc2s1)Nc1ccccc1Cl [C28] | 10 | 7 | 8 | 10 | 5 | 5 | 10 | 10 | 5 | 5 | 7 | 7 | < 20 |  |
| CCOc1ccc2nc(NC(=O)Nc3ccccc3C)sc2c1 [C30] | 15 | 4 | 12 | 10 | 15 | 15 | 7 | 15 | 15 | 15 | > 25 | 5 | < 20 |  |
| CCOc1ccc2nc(NC(=O)Nc3ccc(OC)cc3)sc2c1 [C33] | > 25 | > 25 | > 25 | 25 | > 25 | > 25 | > 25 | > 25 | > 25 | > 25 | > 25 | > 25 |  |  |
| O=C(Nc1ccc([N+](=O)[O-])cc1O)Nc1ccccc1Br [SB225002, reference compound] |  |  |  |  |  |  |  |  |  |  |  |  |  | effect on RCC and HNSCC cells ([1]; 786, 786R, CAL27, CAL27R (Figure S7), compared to C29): modest effect; IC50 (SKM1; 48 h): > 100 µM; IC50 (K562; 48 h): > 100 µM; IC50 (MDA-MD-231): 100 µM; IC50 (Molm14; 48 h, read-out: IC50 14 (AML)): 90 µM; IC50 (Molm13; 48 h, read-out: IC50 13 (AML)): > 100 µM; IC50 (CAL33): 80 µM; IC50 (OCI-AML3; 48 h): 90 µM; IC50 (OCI-AML2; 48 h): > 100 µM; IC50 (786-O): 100 µM; IC50 (A498): 70 µM; IC50 (RCC4; 48 h): 100 µM; IC50 (CAL27): 100 µM |
| Cc1c(F)cccc1NC(=O)Nc1ccc(Cl)c(S(=O)(=O)[C@H]2CCCNC2)c1O [danirixin, reference compound] |  |  |  |  |  |  |  |  |  |  |  |  |  | CXCL7-dependent migration of HuVECs (HuVEC): no effect; efficacy on tumor growth, 786-O xenograft (786-O cells): equivalent efficacy |
| CCN(CC)CCNC(=O)c1c(C)[nH]c(/C=C2\C(=O)Nc3ccc(F)cc32)c1C [sunitinib] |  |  |  |  |  |  |  |  |  |  |  |  |  | efficacy on tumor growth, 786-O xenograft (786-O cells): equivalent efficacy |
